Laboratory results from US20260315464A1, “COMPOSITIONS, METHODS, AND SYSTEMS FOR MODULATING SPLICING OF MSH3” (REVIR THERAPEUTICS, INC., priority 2023, published 2026).

Legend:
Type in all cases: cell-based
MSH3 Exon 21A = experiment: Splicing and RNA expression changes, poison exon 21A (FIGS. 6-8); settings: FIG. 8; for total RNA: e.g., due to NMD
Excerpt: (§1) Poison exons were identified in endogenous MSH3 genome by employing a proprietary bioinformatics pipeline screening for cryptic exons in combination with examining poison exon candidates that could be regulated by an agent described herein or by nonsense mediated decay (NMD) using cycloheximide. FIG. 6 and FIG. 7 illustrate identification of Exon 21A, but not Exon 21B, as a poison exon that could be regulated by the agent described herein. FIG. 8 and FIG. 9 illustrate mutations that can be introduced into the poison exon (Exon 21A and Exon 14A_1 or Exon 14A_2, respectively), where the mutated nucleotide bases (e.g., CAG) could further enhance the suppression of the MSH3 expression. Such mutations can be utilized as a method or a system for screening additional candidate agents. FIG. 8 illustrates splicing and RNA expression changes for targets regulated by an agent described herein. […] FIG. 8 also illustrates how mutating a poison exon (e.g., from ATA to CAG) increased percentage of splice inclusion of Exon 21A from 0.13 to 0.98. Such mutations can be useful for designing a method or a system for screening additional agents for modulating splicing in of poison exon into a mRNA (e.g., as shown in FIG. 10). FIG. 9 illustrates splicing and RNA expression changes for targets regulated by an agent described herein. […] FIG. 9 also illustrates how mutating the poison exon (e.g., from TGA to CAG) increased percentage of splice inclusion of Exon 14A_1 from 0.00 to 0.59. Such mutations can be useful for designing a method or a system for screening additional agents for modulating splicing in of poison exon into a mRNA (e.g., as shown in FIG. 10). […] FIG. 10A illustrates engineered minigene donor (e.g., by mutating endogenous trinucleotides to CAG as shown in FIG. 8 and FIG. 9) for driving expression of a luciferase reporter gene. FIG. 10B illustrates minigene PCR showing the presence of the poison exon comprising the CAG mutation. […] FIG. 10C illustrates increased luciferase signal generated by the presence of the minigene comprising the poison exon comprising the CAG mutation.

[1] = tested on: MSH3 Exon 14A_1 or Exon 14A_2; experiment: Splicing and RNA expression changes, poison exon 14A_1 or 14A_2 (FIG. 9); settings: for total RNA: e.g., due to NMD
Excerpt: as §1

MSH3 = experiment: QPCR assay for levels of MSH3 upon compound treatment in HEK293T or AD293 cells (fold-change of MSH3 transcript, EC50 of MSH3 downregulation; total MSH3 exons 13/14, exons 20/21; Table 8); settings: for mrna remaining at 1 µM / mrna remaining at 10 µM: Homo sapiens, fold-change of the MSH3 transcript, normalized to GAPDH; for mrna remaining at 1 µM: 1 μM compound; for mrna remaining at 10 µM: 10 μM compound
Summary of the method: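 HEK293T or AD293 cells were treated at 1 μM and […]; RNA-to-cDNA qPCR used TaqMan assays for total MSH3 (exons 13/14, exons 20/21) and poison-exon junctions exon 13/PE14A and exon 20/PE21A. Transcript levels were normalized to GAPDH.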

SMILES | mrna remaining at 1 µM (MSH3) [%] | mrna remaining at 10 µM (MSH3) [%] | other results
C[C@@H]1C[C@@H]([C@H](O)CC2CC(=O)NC(=O)C2)C(=O)[C@@H](C)C1 [CHX, cycloheximide, reference compound] |  |  | poison exon expression (Exon 21A) (MSH3 Exon 21A): increased poison exon expression; total RNA (MSH3 Exon 21A): decreased total RNA; poison exon expression (Exon 14A_1 or Exon 14A_2) [1]: increased poison exon expression; total RNA [1]: decreased total RNA
CN(c1ccc(N2Cc3cnc(-c4cnn(C)c4)cc3C2=O)nn1)C1CCNCC1 [Compound 1, 2-(6-(methyl(piperidin-4-yl)amino)pyridazin-3-yl)-6-(1-methyl-1H-pyrazol-4-yl)-2,3-dihydro-1H-pyrrolo[3,4-c]pyridin-1-one] |  |  | poison exon expression (Exon 21A) (MSH3 Exon 21A): increased poison exon expression; total RNA (MSH3 Exon 21A): decreased total RNA; poison exon expression (Exon 14A_1 or Exon 14A_2) [1]: increased poison exon expression; total RNA [1]: decreased total RNA
CN(c1ccc(N2Cc3c(C#N)cc(-c4nn(C)nc4Cl)cc3C2=O)nn1)C1CC(C)(C)NC(C)(C)C1 [Compound 682, 6-(5-chloro-2-methyl-2H-1,2,3-triazol-4-yl)-2-(6-(methyl(2,2,6,6-tetramethylpiperidin-4-yl)amino)pyridazin-3-yl)-1-oxoisoindoline-4-carbonitrile] | 77 | 17 | 
COc1cc(-c2nn(C)nc2C)cc2c1CN(c1ccc(N(C)C3CC(C)(C)NC(C)(C)C3)nn1)C2=O [Compound 683, 6-(2,5-dimethyl-2H-1,2,3-triazol-4-yl)-4-methoxy-2-(6-(methyl(2,2,6,6-tetramethylpiperidin-4-yl)amino)pyridazin-3-yl)isoindolin-1-one] | 138 | 26 | 
COc1cc(-c2nn(C)nc2Cl)cc2c1CN(c1ccc(O[C@H]3C[C@]4(C)CC[C@](C)(C3)N4)nn1)C2=O [Compound 684, 6-(5-chloro-2-methyl-2H-1,2,3-triazol-4-yl)-2-(6-(((1R,3s,5S)-1,5-dimethyl-8-azabicyclo[3.2.1]octan-3-yl)oxy)pyridazin-3-yl)-4-methoxyisoindolin-1-one] | 133 | 24 | 
CN(c1ccc(N2Cc3c(C#N)cc(-c4nn(C)nc4Cl)cc3C2=O)nn1)C1C[C@]2(C)CC[C@](C)(C1)N2 (stereo partly drawn) [Compound 685, 6-(5-chloro-2-methyl-2H-1,2,3-triazol-4-yl)-2-(6-(((1R,5S)-1,5-dimethyl-8-azabicyclo[3.2.1]octan-3-yl)(methyl)amino)pyridazin-3-yl)-1-oxoisoindoline-4-carbonitrile] | 24 | 20 | 
COc1cc(-c2nn(C)nc2Cl)cc2c1CN(c1ccc(N(C)[C@H]3C[C@]4(C)CC[C@](C)(C3)N4)nn1)C2=O [Compound 686, 6-(5-chloro-2-methyl-2H-1,2,3-triazol-4-yl)-2-(6-(((1R,3s,5S)-1,5-dimethyl-8-azabicyclo[3.2.1]octan-3-yl)(methyl)amino)pyridazin-3-yl)-4-methoxyisoindolin-1-one] | 109 | 26 | 
COc1cc(-c2nn(C)nc2C)cc2c1CN(c1ccc(N(C)[C@H]3C[C@]4(C)CC[C@](C)(C3)N4)nn1)C2=O [Compound 687, 6-(2,5-dimethyl-2H-1,2,3-triazol-4-yl)-2-(6-(((1R,3s,5S)-1,5-dimethyl-8-azabicyclo[3.2.1]octan-3-yl)(methyl)amino)pyridazin-3-yl)-4-methoxyisoindolin-1-one] | 110 | 19 | 
COc1cc(-c2nn(C)nc2C)cc2c1CN(c1ccc(OC3CC(C)(C)NC(C)(C)C3)nn1)C2=O [Compound 688, 6-(2,5-dimethyl-2H-1,2,3-triazol-4-yl)-4-methoxy-2-(6-((2,2,6,6-tetramethylpiperidin-4-yl)oxy)pyridazin-3-yl)isoindolin-1-one] | 123 | 86 | 
CN(c1ccc(N2Cc3c(O)cc(-c4nn(C)nc4Cl)cc3C2=O)nn1)[C@H]1C[C@]2(C)CC[C@](C)(C1)N2 [Compound 689, 6-(5-chloro-2-methyl-2H-1,2,3-triazol-4-yl)-2-(6-(((1R,3s,5S)-1,5-dimethyl-8-azabicyclo[3.2.1]octan-3-yl)(methyl)amino)pyridazin-3-yl)-4-hydroxyisoindolin-1-one] | 88 | 27 | 
CN(c1ccc(N2Cc3c(C#N)cc(-c4nnn(C)n4)cc3C2=O)nn1)[C@H]1C[C@]2(C)CC[C@](C)(C1)N2 [Compound 693, 2-(6-(((1R,3s,5S)-1,5-dimethyl-8-azabicyclo[3.2.1]octan-3-yl)(methyl)amino)pyridazin-3-yl)-6-(2-methyl-2H-tetrazol-5-yl)-1-oxoisoindoline-4-carbonitrile] | 94 | 40 | 
Cc1cn(-c2cc(C#N)c3c(c2)C(=O)N(c2ccc(N(C)[C@H]4C[C@]5(C)CC[C@](C)(C4)N5)nn2)C3)nn1 [Compound 695, 2-(6-(((1R,3s,5S)-1,5-dimethyl-8-azabicyclo[3.2.1]octan-3-yl)(methyl)amino)pyridazin-3-yl)-6-(4-methyl-1H-1,2,3-triazol-1-yl)-1-oxoisoindoline-4-carbonitrile] |  |  | EC50 (MSH3; EC50 of MSH3 downregulation, XtalPi): 11100 nM
